Columns and labels:
[1] = target: Platelet-derived growth factor receptor beta (Homo sapiens, UniProt P09619); assay: (§1) Kinase Inhibition Assay: Table 9: Compounds 1 and 2, Section D., (see FIG. 4, bottom row, far right column) each inhibit VEGFR-2 and PDGFR-β for antiangiogenic effects and also inhibit human TS (hTS) for cytotoxic effects in single agents.12 The inhibitory potency of both these single agents against VEGFR-2, PDGFR-β, and hTS was better than or close to standards (Tables 9, 10).
Sequence of Platelet-derived growth factor receptor beta (P09619 whole entry): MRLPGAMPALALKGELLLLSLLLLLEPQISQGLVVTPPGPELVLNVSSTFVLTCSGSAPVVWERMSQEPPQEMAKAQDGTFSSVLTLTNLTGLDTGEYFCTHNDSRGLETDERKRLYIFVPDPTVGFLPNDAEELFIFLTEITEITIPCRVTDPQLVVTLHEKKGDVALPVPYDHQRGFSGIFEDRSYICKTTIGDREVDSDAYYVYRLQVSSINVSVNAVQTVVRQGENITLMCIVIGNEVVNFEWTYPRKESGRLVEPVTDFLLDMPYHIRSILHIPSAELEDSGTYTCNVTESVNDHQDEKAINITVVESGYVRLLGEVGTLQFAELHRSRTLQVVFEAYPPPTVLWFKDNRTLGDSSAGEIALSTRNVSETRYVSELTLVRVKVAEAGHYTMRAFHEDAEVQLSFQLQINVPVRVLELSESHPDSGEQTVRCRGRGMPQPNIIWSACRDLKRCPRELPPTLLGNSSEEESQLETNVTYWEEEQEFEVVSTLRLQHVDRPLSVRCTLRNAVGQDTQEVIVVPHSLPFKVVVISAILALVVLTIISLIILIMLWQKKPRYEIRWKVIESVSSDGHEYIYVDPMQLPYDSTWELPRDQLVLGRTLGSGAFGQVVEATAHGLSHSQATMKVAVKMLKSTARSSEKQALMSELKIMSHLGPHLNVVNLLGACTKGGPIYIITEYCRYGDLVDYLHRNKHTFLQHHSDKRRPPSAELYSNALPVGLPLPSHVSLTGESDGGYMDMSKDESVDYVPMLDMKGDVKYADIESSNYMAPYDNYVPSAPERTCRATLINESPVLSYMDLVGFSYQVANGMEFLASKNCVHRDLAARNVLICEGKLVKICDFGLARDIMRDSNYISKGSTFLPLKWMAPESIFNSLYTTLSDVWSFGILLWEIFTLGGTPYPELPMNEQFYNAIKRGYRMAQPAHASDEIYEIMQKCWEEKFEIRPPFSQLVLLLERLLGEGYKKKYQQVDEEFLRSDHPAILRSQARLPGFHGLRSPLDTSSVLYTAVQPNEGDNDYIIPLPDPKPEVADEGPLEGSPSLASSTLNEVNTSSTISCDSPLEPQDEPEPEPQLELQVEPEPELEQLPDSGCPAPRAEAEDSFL

[2] = target: Vascular endothelial growth factor receptor 1 (Homo sapiens, UniProt P17948); assay: as §1
Sequence of Vascular endothelial growth factor receptor 1 (P17948 whole entry): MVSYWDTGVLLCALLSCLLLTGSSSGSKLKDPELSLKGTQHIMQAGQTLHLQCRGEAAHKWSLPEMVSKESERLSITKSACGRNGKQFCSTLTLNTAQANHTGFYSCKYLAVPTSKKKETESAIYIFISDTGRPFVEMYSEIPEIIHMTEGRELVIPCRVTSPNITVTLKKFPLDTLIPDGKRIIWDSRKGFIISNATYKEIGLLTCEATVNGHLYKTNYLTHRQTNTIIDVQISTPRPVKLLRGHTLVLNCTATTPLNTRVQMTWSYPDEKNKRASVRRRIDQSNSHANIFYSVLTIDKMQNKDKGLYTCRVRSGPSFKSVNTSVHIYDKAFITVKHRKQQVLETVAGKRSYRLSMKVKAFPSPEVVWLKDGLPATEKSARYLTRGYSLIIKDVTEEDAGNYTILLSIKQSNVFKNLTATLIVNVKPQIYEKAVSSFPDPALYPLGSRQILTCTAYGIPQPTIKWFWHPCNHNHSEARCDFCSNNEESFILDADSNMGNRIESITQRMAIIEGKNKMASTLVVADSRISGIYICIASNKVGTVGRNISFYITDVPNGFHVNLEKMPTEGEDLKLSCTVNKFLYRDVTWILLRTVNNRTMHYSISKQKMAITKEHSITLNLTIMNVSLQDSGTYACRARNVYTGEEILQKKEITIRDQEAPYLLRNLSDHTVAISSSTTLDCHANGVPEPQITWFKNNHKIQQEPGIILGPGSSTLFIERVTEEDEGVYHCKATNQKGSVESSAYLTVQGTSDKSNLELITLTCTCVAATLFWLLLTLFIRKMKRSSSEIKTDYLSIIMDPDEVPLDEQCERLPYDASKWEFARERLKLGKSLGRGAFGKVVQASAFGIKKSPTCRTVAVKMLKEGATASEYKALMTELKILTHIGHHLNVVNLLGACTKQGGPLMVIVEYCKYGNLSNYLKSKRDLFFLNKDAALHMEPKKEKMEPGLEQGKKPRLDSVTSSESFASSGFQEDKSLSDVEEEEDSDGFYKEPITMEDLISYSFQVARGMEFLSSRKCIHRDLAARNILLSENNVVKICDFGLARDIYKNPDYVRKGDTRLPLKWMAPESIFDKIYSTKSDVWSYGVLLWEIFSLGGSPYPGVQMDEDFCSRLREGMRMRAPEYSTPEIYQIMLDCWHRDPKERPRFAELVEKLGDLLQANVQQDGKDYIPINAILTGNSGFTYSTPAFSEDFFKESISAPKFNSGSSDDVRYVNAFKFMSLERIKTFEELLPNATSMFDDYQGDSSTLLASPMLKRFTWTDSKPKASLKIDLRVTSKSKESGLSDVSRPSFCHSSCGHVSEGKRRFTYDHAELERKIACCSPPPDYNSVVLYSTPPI

[3] = target: Vascular endothelial growth factor receptor 2 (Homo sapiens, UniProt P35968); assay: as §1
Sequence of Vascular endothelial growth factor receptor 2 (P35968 whole entry): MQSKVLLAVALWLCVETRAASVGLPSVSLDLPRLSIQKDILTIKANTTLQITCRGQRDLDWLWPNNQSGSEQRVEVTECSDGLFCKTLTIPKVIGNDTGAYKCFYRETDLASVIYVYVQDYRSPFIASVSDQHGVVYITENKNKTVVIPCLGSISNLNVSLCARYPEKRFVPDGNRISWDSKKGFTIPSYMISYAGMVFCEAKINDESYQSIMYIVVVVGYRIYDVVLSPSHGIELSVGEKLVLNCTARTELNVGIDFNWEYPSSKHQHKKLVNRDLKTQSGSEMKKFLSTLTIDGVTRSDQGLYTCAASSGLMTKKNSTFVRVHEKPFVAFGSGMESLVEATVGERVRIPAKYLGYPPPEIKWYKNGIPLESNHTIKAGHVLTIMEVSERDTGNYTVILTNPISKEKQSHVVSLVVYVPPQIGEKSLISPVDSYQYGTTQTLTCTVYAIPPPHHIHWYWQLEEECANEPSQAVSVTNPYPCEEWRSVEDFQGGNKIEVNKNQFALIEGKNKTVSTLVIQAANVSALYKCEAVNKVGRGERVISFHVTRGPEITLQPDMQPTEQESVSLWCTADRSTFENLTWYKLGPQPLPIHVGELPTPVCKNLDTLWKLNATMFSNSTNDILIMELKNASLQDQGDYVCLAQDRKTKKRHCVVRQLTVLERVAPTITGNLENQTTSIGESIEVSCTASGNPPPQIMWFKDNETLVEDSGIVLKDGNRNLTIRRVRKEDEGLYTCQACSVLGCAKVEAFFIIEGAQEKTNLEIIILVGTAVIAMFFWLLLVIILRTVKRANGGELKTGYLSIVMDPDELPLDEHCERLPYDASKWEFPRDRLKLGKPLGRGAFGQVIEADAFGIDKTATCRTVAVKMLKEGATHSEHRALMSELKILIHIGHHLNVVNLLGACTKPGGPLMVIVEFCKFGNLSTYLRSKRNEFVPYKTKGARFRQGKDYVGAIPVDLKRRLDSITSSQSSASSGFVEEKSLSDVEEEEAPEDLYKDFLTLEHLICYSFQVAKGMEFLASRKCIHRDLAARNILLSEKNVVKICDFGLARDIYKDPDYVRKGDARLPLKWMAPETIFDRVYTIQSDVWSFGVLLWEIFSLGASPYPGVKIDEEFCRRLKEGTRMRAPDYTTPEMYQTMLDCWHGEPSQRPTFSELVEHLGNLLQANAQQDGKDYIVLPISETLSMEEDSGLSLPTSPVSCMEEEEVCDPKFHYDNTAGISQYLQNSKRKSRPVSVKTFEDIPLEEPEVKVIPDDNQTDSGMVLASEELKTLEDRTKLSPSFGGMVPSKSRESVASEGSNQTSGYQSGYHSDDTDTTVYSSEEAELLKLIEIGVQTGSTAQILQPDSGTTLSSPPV

[4] = target: Epidermal growth factor receptor (Homo sapiens, UniProt P00533); assay: as §1
Sequence of Epidermal growth factor receptor (P00533 whole entry): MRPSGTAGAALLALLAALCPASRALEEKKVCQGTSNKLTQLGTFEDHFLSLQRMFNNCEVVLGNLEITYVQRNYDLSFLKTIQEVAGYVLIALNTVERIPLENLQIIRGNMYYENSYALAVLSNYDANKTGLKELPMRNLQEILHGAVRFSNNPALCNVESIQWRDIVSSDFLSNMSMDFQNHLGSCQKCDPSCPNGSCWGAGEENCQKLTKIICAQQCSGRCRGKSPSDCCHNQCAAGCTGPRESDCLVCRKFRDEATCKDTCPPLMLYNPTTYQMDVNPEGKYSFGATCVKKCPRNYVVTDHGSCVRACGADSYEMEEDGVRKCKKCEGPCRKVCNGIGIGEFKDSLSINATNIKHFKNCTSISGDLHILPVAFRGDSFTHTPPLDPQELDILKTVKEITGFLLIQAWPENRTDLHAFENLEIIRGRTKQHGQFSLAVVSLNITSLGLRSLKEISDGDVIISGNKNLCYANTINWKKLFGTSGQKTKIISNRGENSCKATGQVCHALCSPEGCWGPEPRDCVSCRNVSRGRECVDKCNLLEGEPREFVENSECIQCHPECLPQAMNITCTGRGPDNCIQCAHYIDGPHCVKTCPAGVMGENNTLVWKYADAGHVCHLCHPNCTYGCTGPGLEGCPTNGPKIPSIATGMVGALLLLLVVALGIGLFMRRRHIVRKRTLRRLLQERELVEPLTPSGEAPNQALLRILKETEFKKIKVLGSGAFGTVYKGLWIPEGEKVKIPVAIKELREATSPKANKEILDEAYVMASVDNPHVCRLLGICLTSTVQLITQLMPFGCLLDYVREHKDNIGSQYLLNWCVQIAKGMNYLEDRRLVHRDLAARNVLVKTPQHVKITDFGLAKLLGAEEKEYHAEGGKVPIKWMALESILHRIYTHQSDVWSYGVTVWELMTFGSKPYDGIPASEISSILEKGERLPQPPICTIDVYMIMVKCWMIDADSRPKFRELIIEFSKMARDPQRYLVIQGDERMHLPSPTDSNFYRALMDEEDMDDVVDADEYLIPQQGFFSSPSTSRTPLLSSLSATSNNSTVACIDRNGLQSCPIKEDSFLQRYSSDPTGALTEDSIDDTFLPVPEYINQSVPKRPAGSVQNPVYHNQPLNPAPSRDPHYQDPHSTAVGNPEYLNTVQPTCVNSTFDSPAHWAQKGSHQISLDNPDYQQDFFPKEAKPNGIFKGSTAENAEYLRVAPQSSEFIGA

Structure (SMILES) | IC50 [1] | IC50 [2] | IC50 [3] | IC50 [4]
COc1cccc(Sc2sc3nc(N)nc(N)c3c2C)c1 | 40.3 µM | 160 µM | 56.3 µM | 10.4 µM
COc1ccc(Sc2sc3nc(N)nc(N)c3c2C)cc1OC | 2.8 µM | 118 µM | 22.6 µM | –

From ChEMBL document CHEMBL5728723, “Pyrimidine compounds and pyrimido indole compounds and methods of use” (2021)
